Data published in patent publication US9320741B2, “Compositions and methods for treating neoplasia, inflammatory disease and other disorders” (Dana-Farber Cancer Institute, Inc., priority 2010, dated 2016).
Where two headings read alike, the source gives them in different places.

How the values were obtained:
[1] = molecular target: BRD4(1) (Homo sapiens (Human), UniProt O60885); test: Alpha-assay acetyl-histone binding, BRD4 site 1; conditions: 12-point dose response curve; for IC50: read-out: Bio-assay IC50 BRD4(1)
Method: The binding activity of lead compounds with the BRD4 site 1 was determined by Alpha-assay with a 12-point dose response curve (FIG. 56A).
(§1) Assays were performed as described previously^8 with minor modifications from the manufacturer's protocol (PerkinElmer, USA). All reagents were diluted in 50 mM HEPES, 100 mM NaCl, 0.1% BSA, pH 7.4 supplemented with 0.05% CHAPS and allowed to equilibrate to room temperature prior to addition to plates. […] Plates were sealed and incubated for a further 30 minutes, before the addition of 4 μl of streptavidin-coated donor beads (25 μg/ml) and 4 μl nickel chelate acceptor beads (25 μg/ml) under low light conditions. Plates were foil-sealed to protect from light, incubated at room temperature for 60 minutes and read on a PHERAstar FS plate reader (BMG Labtech, Germany) using an AlphaScreen 680 excitation/570 emission filter set. IC50 values were calculated in Prism 5 (GraphPad Software, USA) after normalization against corresponding DMSO controls and are given as the final concentration of compound in the 20 μl reaction volume.

[2] = molecular target: BRD4(2) (Homo sapiens (Human), UniProt O60885); test: Alpha-assay acetyl-histone binding, BRD4 site 2; conditions: 12-point dose response curve; for IC50: read-out: Bio-assay IC50 BRD4(2)
[3] = system: 797 cells; test: Cell proliferation assay, 797 cell line; type: cell-based; conditions: Homo sapiens, read-out: Cell-assay IC50 797 cells
Method: Curve fit was calculated by logistical regression.
Cells were seeded into white, 384-well microtiter plates (Nunc) at 500 cells per well in a total volume of 50 μL media. […] Compounds were delivered to microtiter assay plates by robotic pin transfer (PerkinElmer JANUS equipped with a V&P Scientific 100 nL pin tool). Following a 48 h incubation at 37° C., cells were lysed and wells were assessed for total ATP content using a commercial proliferation assay (Cell TiterGlo; Promega). Replicate measurements were analyzed with respect to dose and estimates of IC50 were calculated by logistic regression (GraphPad Prism).

[4] = system: TT and TE10; test: Cell proliferation assay, non-NMC squamous carcinoma lines; type: cell-based, human; conditions: TT and TE10, 250 nM, 72 hours
Method: Data is presented as mean±s.d. (n=3). IC50 values were calculated by logistic regression.

[5] = system: BRD3-NUT cells; test: BRD3-NUT xenograft study; type: in vivo, mice; conditions: 50 mg/kg IP 7 days/week
Text: Mice were implanted subcutaneously with BRD3-NUT cells. Tumor measurement data were collected weekly. […] On day 24 post-injection, five mice from each group were euthanized and tumor samples were collected to be sent for lab analysis. Throughout the remainder of the study tumor samples were collected as mice were sacrificed. For all samples one half of the tumor was fixed in 10% formalin and the other half was flash frozen on dry ice. Treatment ended on day 32. Tumor volume and weights were collected weekly until all mice either became moribund or tumors reached 2 cm in any dimension. […] Upon cessation of therapy, tumor growth resumed. Tumor volume differences were significant at all points (p=7.65274E-09 at Day 24).

[6] = molecular target: GFP-BRD4 (Homo sapiens (Human), UniProt O60885)
[7] = system: NMC 797 and Per403 cells; test: Differentiation and proliferation immunohistochemistry, NMC cells; type: cell-based, human
Text: Direct inhibition of gene products expressed from recurrent, oncogenic translocations is a validated therapeutic approach in cancer^28,29. The phenotypic consequences of chemical inhibition of BET-family bromodomains on the BRD4-dependent NUT midline carcinoma was explored. BRD4-NUT chromatin localization is mechanistically linked to the preserved tandem bromodomains of BRD4 in the fusion protein^17. A characteristic feature of NMC is the appearance of discrete nuclear speckles of the BRD4-NUT oncoprotein by NUT-directed immunohistochemistry (IHC)^30.
A striking differentiation phenotype is observed with knock-down of BRD4-NUT in NMC cell lines^17. […] Differentiation was prompt (<24 hours) and characterized by markedly augmented expression of cytokeratin, a hallmark of squamous differentiation (FIG. 3h).

[8] = system: TE10 and TT; test: Differentiation immunohistochemistry, non-BRD4-dependent squamous carcinoma lines; type: cell-based, human
[9] = system: BRD4-dependent human carcinoma cells; test: Annexin-V/propidium iodide flow cytometry, BRD4-dependent carcinoma cells; type: cell-based; conditions: 500 nM, 24 or 48 hours
Method: Thus, early and late apoptosis was assessed with annexin-V and propidium iodide staining by flow cytometry.
Trypsinized cells were mixed 1:1 on ice with Annexin-V/propidium iodide buffer (10 mM HEPES pH 7.4, 140 mM NaCl, 2.5 mM CaCl2) containing Annexin V-FITC (BD Pharmingen, 1:500) and propidium iodide (Invitrogen, 1:1000). Samples were immediately analyzed on a BD FACS Canto II. Visualizations and analyses of apoptotic fractions were generated using FlowJo flow cytometry analysis software (Tree Star, Inc.).

[10] = molecular target: GFP-BRD4-NUT (Homo sapiens (Human), UniProt O60885+Q86Y26); conditions: 500 nM, compared to vehicle control
Method: (§2) FRAP studies were performed on U2OS cells as previously described^3,20. In brief, U2OS cells were transfected (lipofectamine; Invitrogen) with mammalian overexpression constructs encoding GFP chimera with BRD4, NUT and BRD4-NUT. A 5 μm^2 nuclear region was bleached with high laser intensity in one cell within each field, and measured for recovery with low laser intensity and a 150 μm pinhole. Images of identical fields were acquired using a Nikon Cl Plus confocal microscope equipped with a 37° C. heated chamber and FRAP modules over 90 seconds. Average intensities of the bleached region were measured over time and using MetaMorph v7, and normalized to an independent region of interest before bleaching.

[11] = molecular target: GFP-NUT (Homo sapiens (Human), UniProt Q86Y26); test: FRAP in U2OS cells, GFP-NUT; conditions: 500 nM
Method: as §2

[12] = system: NMC 797 xenografts; test: NMC 797 xenograft efficacy study
Method: Prior to randomization and after four days of therapy, mice were evaluated by PET imaging.
To capture comparative mechanistic and pharmacodynamic data, all animals were sacrificed and tumors were explanted for histopathologic analysis.
Animals were followed daily for clinical symptoms. Tumor measurements were assessed by caliper measurements, and volume calculated using the formula Vol=0.5×L×W^2. After 2 weeks of treatment, all mice were humanely euthanized, and tumors were fixed in 10% formalin for histopathological examination. Statistical significance of tumor volumes was calculated by two-sided Students t-test. All animal studies were approved by the IACUC of the DFCI.

[13] = Pharmacokinetic studies in CD1 mice; conditions: for AUC: CD1, mouse, plasma
[14] = system: cellular receptors; test: Off-target effects on cellular receptors
[15] = Unspecified biological assay
[16] = system: NMC 11060 xenografts; test: Patient-derived NMC 11060 primary xenograft study; type: in vivo, mice; conditions: 50 mg kg^−1 daily for four days
Text: In parallel with these studies, a patient with widely metastatic BRD4-NUT positive NMC arising from the mediastinum was identified. With the goal of developing a more clinically-relevant disease model, short-term cultures were established using discarded clinical material obtained from pleural fluid draining from a palliative chest tube in the patient.

[17] = system: Keratin-14, Keratin-10, epidermal transglutaminase (TGM1); test: RT-PCR expression analysis of squamous tissue genes in NMC 797 cells; type: cell-based, human
[18] = system: NMC 797 cells; test: Flow cytometry for DNA content, NMC 797; type: cell-based, human; conditions: 250 nM, 48 h
Method: Data is presented as mean±s.d. (n=3). IC50 values were calculated by logistic regression. […] Data points are mean±s.d. (n=3). […] PI, propidium iodide. […] A significant response to therapy is observed by two-tailed t-test at 14 days (p=0.039). Data represent the mean±s.d. (n=7). […] Expanded fields are provided in Supplementary FIGS. 11, 12. […] Quantitative analysis of keratin induction was performed using image masking (FIG. 5J, right panel) and pixel positivity analysis (FIG. 5K). A significant response to therapy is observed by two-tailed t-test (p=0.0001). Data represent the mean±s.d. of three independent wide microscopic fields.

[19] = system: NMC 11060 cells; test: Flow cytometry for DNA content, NMC 11060; type: cell-based, human; conditions: 250 nM, 48 h
Method: Data is presented as mean±s.d. (n=3). IC50 values were calculated by logistic regression. […] Data points are mean±s.d. (n=3).

[20] = molecular target: CBP (Homo sapiens (Human), UniProt Q92793); test: AlphaScreen profiling against CBP; type: binding
Method: as §1

[21] = system: BET family members; test: AlphaScreen profiling against other BET family members; type: binding, human

Sequence of GFP-NUT (Q86Y26 whole entry, looked up): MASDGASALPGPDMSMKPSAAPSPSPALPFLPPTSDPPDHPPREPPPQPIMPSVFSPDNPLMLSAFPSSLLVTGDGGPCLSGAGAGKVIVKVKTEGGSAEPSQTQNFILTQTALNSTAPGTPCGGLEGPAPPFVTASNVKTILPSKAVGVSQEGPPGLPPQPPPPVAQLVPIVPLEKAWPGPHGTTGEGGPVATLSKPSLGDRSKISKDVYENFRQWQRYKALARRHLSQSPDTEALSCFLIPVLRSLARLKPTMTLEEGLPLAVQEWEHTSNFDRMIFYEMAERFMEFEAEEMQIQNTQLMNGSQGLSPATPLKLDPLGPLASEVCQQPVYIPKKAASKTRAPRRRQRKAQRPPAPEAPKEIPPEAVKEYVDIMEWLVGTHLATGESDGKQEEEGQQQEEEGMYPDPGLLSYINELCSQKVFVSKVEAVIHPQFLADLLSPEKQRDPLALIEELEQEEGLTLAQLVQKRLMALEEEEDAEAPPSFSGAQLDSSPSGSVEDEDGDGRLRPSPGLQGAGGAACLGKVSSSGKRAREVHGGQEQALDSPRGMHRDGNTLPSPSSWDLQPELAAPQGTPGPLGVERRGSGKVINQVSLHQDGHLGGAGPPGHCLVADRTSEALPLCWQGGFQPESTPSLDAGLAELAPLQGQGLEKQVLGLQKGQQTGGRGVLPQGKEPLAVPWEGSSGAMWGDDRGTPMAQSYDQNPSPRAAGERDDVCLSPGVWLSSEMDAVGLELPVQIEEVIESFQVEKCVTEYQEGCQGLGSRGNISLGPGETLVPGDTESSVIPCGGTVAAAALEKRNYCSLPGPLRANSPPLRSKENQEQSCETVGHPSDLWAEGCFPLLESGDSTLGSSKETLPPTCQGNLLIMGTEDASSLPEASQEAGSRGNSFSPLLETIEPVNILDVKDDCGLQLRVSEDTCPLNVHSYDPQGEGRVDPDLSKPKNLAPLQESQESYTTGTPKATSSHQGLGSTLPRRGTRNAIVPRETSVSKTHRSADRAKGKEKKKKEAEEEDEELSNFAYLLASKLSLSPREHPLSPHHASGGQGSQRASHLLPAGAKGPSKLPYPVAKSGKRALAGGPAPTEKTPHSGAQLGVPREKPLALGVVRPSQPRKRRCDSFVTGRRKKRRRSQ
Sequence of CBP (Q92793 whole entry): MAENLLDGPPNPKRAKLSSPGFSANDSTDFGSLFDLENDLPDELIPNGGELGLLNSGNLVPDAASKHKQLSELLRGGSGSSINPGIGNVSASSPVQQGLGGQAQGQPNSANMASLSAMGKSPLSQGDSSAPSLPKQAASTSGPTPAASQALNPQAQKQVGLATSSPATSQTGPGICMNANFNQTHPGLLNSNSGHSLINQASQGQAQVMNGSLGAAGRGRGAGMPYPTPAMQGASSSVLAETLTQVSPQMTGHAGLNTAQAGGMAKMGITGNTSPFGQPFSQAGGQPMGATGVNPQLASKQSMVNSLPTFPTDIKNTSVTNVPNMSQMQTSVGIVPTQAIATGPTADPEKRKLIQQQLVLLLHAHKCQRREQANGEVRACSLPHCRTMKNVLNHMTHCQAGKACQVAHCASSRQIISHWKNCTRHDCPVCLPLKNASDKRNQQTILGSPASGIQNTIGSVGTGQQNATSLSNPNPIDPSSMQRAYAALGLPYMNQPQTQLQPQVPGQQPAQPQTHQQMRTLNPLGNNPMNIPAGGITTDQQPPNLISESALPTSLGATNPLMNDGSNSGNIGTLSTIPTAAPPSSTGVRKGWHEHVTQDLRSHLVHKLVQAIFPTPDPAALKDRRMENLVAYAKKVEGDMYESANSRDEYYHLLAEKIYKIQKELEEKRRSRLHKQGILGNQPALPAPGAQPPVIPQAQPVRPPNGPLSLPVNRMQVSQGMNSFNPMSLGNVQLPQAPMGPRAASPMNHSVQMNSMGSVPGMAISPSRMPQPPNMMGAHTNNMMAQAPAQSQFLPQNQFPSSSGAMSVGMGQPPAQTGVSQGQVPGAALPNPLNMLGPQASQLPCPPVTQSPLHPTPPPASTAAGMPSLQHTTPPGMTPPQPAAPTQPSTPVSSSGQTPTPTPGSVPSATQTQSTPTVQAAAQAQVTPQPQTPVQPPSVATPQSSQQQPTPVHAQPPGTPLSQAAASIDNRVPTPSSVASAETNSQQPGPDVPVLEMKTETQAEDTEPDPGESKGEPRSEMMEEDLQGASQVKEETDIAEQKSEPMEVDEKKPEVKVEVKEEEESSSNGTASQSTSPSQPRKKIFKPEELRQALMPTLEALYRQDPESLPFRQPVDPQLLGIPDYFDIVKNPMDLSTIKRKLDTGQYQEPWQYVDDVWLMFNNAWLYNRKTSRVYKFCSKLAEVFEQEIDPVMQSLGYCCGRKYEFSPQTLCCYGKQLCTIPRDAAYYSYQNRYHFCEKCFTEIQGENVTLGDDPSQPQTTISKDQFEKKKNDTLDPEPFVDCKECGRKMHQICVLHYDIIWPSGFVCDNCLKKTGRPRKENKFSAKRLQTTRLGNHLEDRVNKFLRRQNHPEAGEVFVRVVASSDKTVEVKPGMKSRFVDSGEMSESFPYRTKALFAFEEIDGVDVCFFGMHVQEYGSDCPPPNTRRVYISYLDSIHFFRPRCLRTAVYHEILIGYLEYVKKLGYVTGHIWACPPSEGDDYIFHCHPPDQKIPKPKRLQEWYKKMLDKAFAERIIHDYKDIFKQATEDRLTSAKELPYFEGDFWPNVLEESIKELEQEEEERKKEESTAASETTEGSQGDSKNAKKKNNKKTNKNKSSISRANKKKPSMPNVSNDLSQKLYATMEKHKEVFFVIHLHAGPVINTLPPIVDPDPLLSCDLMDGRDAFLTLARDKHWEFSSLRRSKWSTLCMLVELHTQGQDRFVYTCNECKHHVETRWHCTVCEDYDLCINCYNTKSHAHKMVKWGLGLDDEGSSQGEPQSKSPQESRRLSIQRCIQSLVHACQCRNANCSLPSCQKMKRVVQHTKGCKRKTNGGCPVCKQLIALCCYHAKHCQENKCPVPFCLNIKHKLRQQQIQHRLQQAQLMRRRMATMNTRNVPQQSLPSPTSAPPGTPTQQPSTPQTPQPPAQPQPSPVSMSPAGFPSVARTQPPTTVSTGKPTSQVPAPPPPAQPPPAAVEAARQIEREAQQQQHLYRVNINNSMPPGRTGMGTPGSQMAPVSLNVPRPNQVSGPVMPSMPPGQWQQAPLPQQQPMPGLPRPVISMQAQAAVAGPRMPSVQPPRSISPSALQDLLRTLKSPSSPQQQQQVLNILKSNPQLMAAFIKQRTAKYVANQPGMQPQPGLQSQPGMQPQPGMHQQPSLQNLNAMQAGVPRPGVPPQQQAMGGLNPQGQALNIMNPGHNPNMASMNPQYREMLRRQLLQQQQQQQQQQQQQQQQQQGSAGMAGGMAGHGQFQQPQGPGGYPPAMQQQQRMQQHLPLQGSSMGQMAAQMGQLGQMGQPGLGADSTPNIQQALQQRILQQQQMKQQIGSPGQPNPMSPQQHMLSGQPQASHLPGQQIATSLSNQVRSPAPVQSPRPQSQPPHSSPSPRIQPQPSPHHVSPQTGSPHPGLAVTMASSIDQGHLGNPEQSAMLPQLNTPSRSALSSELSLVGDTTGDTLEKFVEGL

**Q.** Which results are given for `Cc1sc2c(c1C)C(c1ccc(Cl)cc1)=N[C@@H](CC(=O)NCCN1CCN(C)CC1)c1nnc(C)n1-2` [JQ13]?
**A.** binding activity with the BRD4 site 1 [1]: excellent binding activity; IC50 [1]: 2.49 nM; binding activity with the BRD4 site 2 [2]: excellent binding activity; IC50 [2]: 0.584 nM; IC50 ([3]; proliferation after 72 hours): 10900 nM

**Q.** Which “effect on cell proliferation” value [4] does the source give for “tert-Butyl 2-(4-(4-chlorophenyl)-2,3,9-trimethyl-6H-thieno[3,2-f][1,2,4]triazolo[4,3-a][1,4]diazepin-6-yl)acetate [JQ1]” here?
**A.** Its value is “Minimal effects observed on cell proliferation”.

**Q.** And the body weight [5]?
**A.** The body weight was “mild weight loss with rapid recovery after cessation of therapy”.

**Q.** And the tumor volume [5]?
**A.** Its tumor volume is “tumor regression while on therapy”.

**Q.** And the “fluorescence recovery of GFP-BRD4” value ([6]; U2OS cells, 500 nM)?
**A.** Its value is “observed recovery is immediate”.

**Q.** What about the “nuclear NUT foci by IHC” value ([7]; 797 NMC cell line, 500 nM, 48 hours) of the same molecule?
**A.** The value was “effaced nuclear foci”.

**Q.** And the time to differentiation ([7]; NMC 797 and Per403 cells)?
**A.** The time to differentiation was < 24 h.

**Q.** What about the differentiation effects [8] of the same molecule?
**A.** The differentiation effects was “fail to exhibit differentiation effects”.

**Q.** What about the “apoptosis (annexin-V and propidium iodide staining)” value [9] of the same molecule?
**A.** Its value is “induced immediate and progressive apoptosis”.

**Q.** And the “time-to-recovery of fluorescence intensity, GFP-BRD4-NUT” value [10]?
**A.** The value was “markedly accelerated time-to-recovery of fluorescence intensity”.

**Q.** And the “redistribution of GFP-NUT” value [11]?
**A.** The value was “no effect was observed”.

**Q.** What about the “tumor growth (tumor volume by caliper)” value ([12]; 50 mg kg^−1 daily intraperitoneal, 14 days) of the same molecule?
**A.** The value was “statistically-significant reduction in tumor growth”.

**Q.** What about the “FDG uptake by PET imaging” value ([12]; 50 mg kg^−1 daily intraperitoneal, four days) of the same molecule?
**A.** Its value is “marked response on FDG uptake”.

**Q.** What about the “tumor keratin expression, quantitative IHC” value ([12]; 50 mg kg^−1 daily, excised tumors) of the same molecule?
**A.** The value was “strong (3+) keratin expression”.

**Q.** And the “NUT nuclear speckles in sectioned tumor tissue” value ([12]; 50 mg kg^−1 daily, excised tumors, IHC)?
**A.** Its value is “effacement of NUT nuclear speckles”.

**Q.** And the “oral bioavailability (F)” value ([13]; CD1 mice, oral 10 mg kg^−1)?
**A.** Its value is 49%.

**Q.** What about the “off-target effects on cellular receptors” value [14] of the same molecule?
**A.** Its value is “few off-target effects on cellular receptors”.

**Q.** With `Cc1sc2c(c1C)C(c1ccc(Cl)cc1)=N[C@@H](CC(=O)N/N=C/c1ncc[nH]1)c1nnc(C)n1-2` [JQ6] as the molecule, how does the “binding activity with the BRD4 site 1” value [1] read?
**A.** Its value is “excellent binding activity”.

**Q.** What about the “binding activity with the BRD4 site 2” value [2] of the same molecule?
**A.** Its value is “excellent binding activity”.

**Q.** With `Cc1sc2c(c1C)C(c1ccc(Cl)cc1)=NC(CC(=O)NCCN1CCOCC1)c1nnc(C)n1-2` (centres unmarked) [JQ33] as the molecule, how does the “binding activity with the BRD4 site 1” value [1] read?
**A.** Its value is “excellent binding activity”.

**Q.** What about the IC50 [1] of the same molecule?
**A.** The IC50 was 85 nM.

**Q.** What about the “binding activity with the BRD4 site 2” value [2] of the same molecule?
**A.** The value was “excellent binding activity”.

**Q.** And the IC50 [2]?
**A.** Its IC50 is 29.5 nM.

**Q.** With `Cc1sc2c(c1C)C(c1ccc(Cl)cc1)=NC(CC(=O)NN)c1nnc(C)n1-2` (centres unmarked) [hydrazide (3)] as the molecule, how does the “activity in at least one biological assay” value [15] read?
**A.** The value was “showed activity”.

**Q.** Which IC50 ([3]; 72 h) does the source give for `Cc1sc2c(c1C)C(c1ccc(Cl)cc1)=N[C@H](CC(=O)OC(C)(C)C)c1nnc(C)n1-2` [(R)-JQ1] here?
**A.** The IC50 was 1540 nM.

**Q.** With `Cc1sc2c(c1C)C(c1ccc(Cl)cc1)=N[C@@H](CC(=O)NCCc1cnc[nH]1)c1nnc(C)n1-2` [JQ8] as the molecule, how does the “binding activity with the BRD4 site 1” value [1] read?
**A.** Its value is “excellent binding activity”.

**Q.** What about the “binding activity with the BRD4 site 2” value [2] of the same molecule?
**A.** The value was “excellent binding activity”.

**Q.** What does the source list for `Cc1sc2c(c1C)C(c1ccc(Cl)cc1)=N[C@@H](CC(=O)OC(C)(C)C)c1nnc(C)n1-2` (single isomer, unassigned) [(+)-JQ1]?
**A.** FDG uptake by PET imaging [16]: marked response on FDG uptake; tumor keratin expression, quantitative IHC [16]: induction of keratin expression; fluorescence recovery of GFP-BRD4 ([6]; 250 nM, 5 h, compared to vehicle control): enhanced recovery; differentiation and growth arrest phenotypes ([7]; BRD4-dependent NMC cells): differentiation and growth arrest phenotypes are prompted; effect on epidermal transglutaminase (TGM1) [17]: absent effect; induction of Keratin-10 [17]: modest induction; cell cycle (DNA content) [18]: induced a G1 arrest; cell cycle (DNA content) [19]: induces a G1 arrest; AUC ([13]; iv, 5 mg/kg): 2090 ng·h/mL; AUC ([13]; po, 10 mg/kg): 2090 ng·h/mL; half-life (T1/2) ([13]; CD1 mice, intravenous 5 mg kg^−1): approximately one

**Q.** For `Cc1sc2c(c1C)C(c1ccc(Cl)cc1)=NC(CC(=O)NN=Cc1ccc(O)cc1)c1nnc(C)n1-2` (centres unmarked) [hydrazone (4)], which “activity in at least one biological assay” value [15] is on record?
**A.** The value was “showed activity”.

**Q.** Which results are given for `Cc1sc2c(c1C)C(c1ccc(Cl)cc1)=NC(CC(=O)NCCCN1CCN(C)CC1)c1nnc(C)n1-2` (centres unmarked) [JQ35]?
**A.** binding activity with the BRD4 site 1 [1]: excellent binding activity; binding activity with the BRD4 site 2 [2]: excellent binding activity

**Q.** What does the source list for `Cc1sc2c(c1C)C(c1ccc(Cl)cc1)=N[C@@H](CC(=O)OC(C)(C)C)c1nnc(C)n1-2` [JQ1S]?
**A.** binding and inhibition of CBP [20]: inactive; binding and inhibition of BET family members [21]: active
